Results as given in PubChem BioAssay (NCI).
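Each compound was tested at five concentrations against cells in 96-well plates for 48 hours. The concentration for full growth arrest is given as TGI.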

How the values were obtained:
Assay in all cases: growth of human tumour cells (NCI), 48 h
786-0 renal = test system: 786-0 renal
A498 renal = test system: A498 renal
A549 NSCLC = test system: A549 NSCLC
ACHN renal = test system: ACHN renal
BT-549 breast = test system: BT-549 breast
CAKI-1 renal = test system: CAKI-1 renal
CCRF-CEM leukemia = test system: CCRF-CEM leukemia
COLO 205 colon = test system: COLO 205 colon
DU-145 prostate = test system: DU-145 prostate
EKVX NSCLC = test system: EKVX NSCLC
HCC-2998 colon = test system: HCC-2998 colon
HCT-116 colon = test system: HCT-116 colon
HCT-15 colon = test system: HCT-15 colon
HL-60(TB) leukemia = test system: HL-60(TB) leukemia
HOP-62 NSCLC = test system: HOP-62 NSCLC
HOP-92 NSCLC = test system: HOP-92 NSCLC
HS 578T breast = test system: HS 578T breast
HT29 colon = test system: HT29 colon
IGROV1 ovarian = test system: IGROV1 ovarian
K-562 leukemia = test system: K-562 leukemia
KM12 colon = test system: KM12 colon
LOX IMVI melanoma = test system: LOX IMVI melanoma
M14 melanoma = test system: M14 melanoma
MALME-3M melanoma = test system: MALME-3M melanoma
MCF7 breast = test system: MCF7 breast
MDA-MB-231 breast = test system: MDA-MB-231 breast
MDA-MB-435 = test system: MDA-MB-435
MDA-N = test system: MDA-N
MOLT-4 leukemia = test system: MOLT-4 leukemia
NCI-H226 lung = test system: NCI-H226 lung
NCI-H23 lung = test system: NCI-H23 lung
NCI-H460 lung = test system: NCI-H460 lung
NCI-H522 lung = test system: NCI-H522 lung
NCI/ADR-RES ovarian = test system: NCI/ADR-RES ovarian
OVCAR-3 ovarian = test system: OVCAR-3 ovarian
OVCAR-4 ovarian = test system: OVCAR-4 ovarian
OVCAR-5 ovarian = test system: OVCAR-5 ovarian
OVCAR-8 ovarian = test system: OVCAR-8 ovarian
PC-3 prostate = test system: PC-3 prostate
RPMI-8226 leukemia = test system: RPMI-8226 leukemia
RXF 393 renal = test system: RXF 393 renal
SF-268 CNS = test system: SF-268 CNS
SF-295 CNS = test system: SF-295 CNS
SF-539 CNS = test system: SF-539 CNS
SK-MEL-2 melanoma = test system: SK-MEL-2 melanoma
SK-MEL-28 melanoma = test system: SK-MEL-28 melanoma
SK-MEL-5 melanoma = test system: SK-MEL-5 melanoma
SK-OV-3 ovarian = test system: SK-OV-3 ovarian
SN12C renal = test system: SN12C renal
SNB-19 CNS = test system: SNB-19 CNS
SNB-75 CNS = test system: SNB-75 CNS
SR leukemia = test system: SR leukemia
SW-620 colon = test system: SW-620 colon
T-47D breast = test system: T-47D breast
TK-10 renal = test system: TK-10 renal
U251 CNS = test system: U251 CNS
UACC-257 melanoma = test system: UACC-257 melanoma
UO-31 renal = test system: UO-31 renal
UACC-62 melanoma = test system: UACC-62 melanoma

Structure (SMILES): COc1ccc(/C=C2/N=C(N/N=C\C(O)C(O)C(O)C(O)CO)NC2=O)cc1 (centres undefined)
- TGI (786-0 renal): > 100 µM
- TGI (A498 renal): > 100 µM
- TGI (A549 NSCLC): > 100 µM
- TGI (ACHN renal): > 100 µM
- TGI (BT-549 breast): > 100 µM
- TGI (CAKI-1 renal): > 100 µM
- TGI (CCRF-CEM leukemia): > 100 µM
- TGI (COLO 205 colon): > 100 µM
- TGI (DU-145 prostate): > 100 µM
- TGI (EKVX NSCLC): > 100 µM
- TGI (HCC-2998 colon): > 100 µM
- TGI (HCT-116 colon): > 100 µM
- TGI (HCT-15 colon): > 100 µM
- TGI (HL-60(TB) leukemia): > 100 µM
- TGI (HOP-62 NSCLC): > 100 µM
- TGI (HOP-92 NSCLC): > 100 µM
- TGI (HS 578T breast): > 100 µM
- TGI (HT29 colon): > 100 µM
- TGI (IGROV1 ovarian): > 100 µM
- TGI (K-562 leukemia): > 100 µM
- TGI (KM12 colon): > 100 µM
- TGI (LOX IMVI melanoma): > 100 µM
- TGI (M14 melanoma): > 100 µM
- TGI (MALME-3M melanoma): > 100 µM
- TGI (MCF7 breast): > 100 µM
- TGI (MDA-MB-231 breast): > 100 µM
- TGI (MDA-MB-435): > 100 µM
- TGI (MDA-N): > 100 µM
- TGI (MOLT-4 leukemia): > 100 µM
- TGI (NCI-H226 lung): > 100 µM
- TGI (NCI-H23 lung): > 100 µM
- TGI (NCI-H460 lung): > 100 µM
- TGI (NCI-H522 lung): > 100 µM
- TGI (NCI/ADR-RES ovarian): > 100 µM
- TGI (OVCAR-3 ovarian): > 100 µM
- TGI (OVCAR-4 ovarian): > 100 µM
- TGI (OVCAR-5 ovarian): > 100 µM
- TGI (OVCAR-8 ovarian): > 100 µM
- TGI (PC-3 prostate): > 100 µM
- TGI (RPMI-8226 leukemia): > 100 µM
- TGI (RXF 393 renal): > 100 µM
- TGI (SF-268 CNS): > 100 µM
- TGI (SF-295 CNS): > 100 µM
- TGI (SF-539 CNS): > 100 µM
- TGI (SK-MEL-2 melanoma): > 100 µM
- TGI (SK-MEL-28 melanoma): > 100 µM
- TGI (SK-MEL-5 melanoma): > 100 µM
- TGI (SK-OV-3 ovarian): > 100 µM
- TGI (SN12C renal): > 100 µM
- TGI (SNB-19 CNS): > 100 µM
- TGI (SNB-75 CNS): > 100 µM
- TGI (SR leukemia): > 100 µM
- TGI (SW-620 colon): > 100 µM
- TGI (T-47D breast): > 100 µM
- TGI (TK-10 renal): > 100 µM
- TGI (U251 CNS): > 100 µM
- TGI (UACC-257 melanoma): > 100 µM
- TGI (UO-31 renal): > 100 µM

Structure (SMILES): O=c1c2cccnc2[nH]c2ccc3[nH]ncc3c12
- TGI (786-0 renal): > 10 µM
- TGI (A498 renal): > 10 µM
- TGI (A549 NSCLC): > 10 µM
- TGI (ACHN renal): > 10 µM
- TGI (BT-549 breast): > 10 µM
- TGI (CAKI-1 renal): > 10 µM
- TGI (CCRF-CEM leukemia): > 10 µM
- TGI (COLO 205 colon): > 10 µM
- TGI (DU-145 prostate): > 10 µM
- TGI (EKVX NSCLC): > 10 µM
- TGI (HCC-2998 colon): > 10 µM
- TGI (HCT-116 colon): > 10 µM
- TGI (HCT-15 colon): > 10 µM
- TGI (HL-60(TB) leukemia): > 10 µM
- TGI (HOP-62 NSCLC): > 10 µM
- TGI (HOP-92 NSCLC): > 10 µM
- TGI (HS 578T breast): > 10 µM
- TGI (HT29 colon): > 10 µM
- TGI (IGROV1 ovarian): > 10 µM
- TGI (K-562 leukemia): > 10 µM
- TGI (KM12 colon): > 10 µM
- TGI (LOX IMVI melanoma): > 10 µM
- TGI (M14 melanoma): > 10 µM
- TGI (MALME-3M melanoma): > 10 µM
- TGI (MCF7 breast): > 10 µM
- TGI (MDA-MB-231 breast): > 10 µM
- TGI (MDA-MB-435): > 10 µM
- TGI (MDA-N): > 10 µM
- TGI (MOLT-4 leukemia): > 10 µM
- TGI (NCI-H226 lung): > 10 µM
- TGI (NCI-H23 lung): > 10 µM
- TGI (NCI-H460 lung): > 10 µM
- TGI (NCI-H522 lung): > 10 µM
- TGI (NCI/ADR-RES ovarian): > 10 µM
- TGI (OVCAR-3 ovarian): > 10 µM
- TGI (OVCAR-4 ovarian): > 10 µM
- TGI (OVCAR-5 ovarian): > 10 µM
- TGI (OVCAR-8 ovarian): > 10 µM
- TGI (PC-3 prostate): > 10 µM
- TGI (RPMI-8226 leukemia): > 10 µM
- TGI (RXF 393 renal): > 10 µM
- TGI (SF-268 CNS): > 10 µM
- TGI (SF-295 CNS): > 10 µM
- TGI (SF-539 CNS): > 10 µM
- TGI (SK-MEL-2 melanoma): > 10 µM
- TGI (SK-MEL-28 melanoma): > 10 µM
- TGI (SK-MEL-5 melanoma): > 10 µM
- TGI (SK-OV-3 ovarian): > 10 µM
- TGI (SN12C renal): > 10 µM
- TGI (SNB-19 CNS): > 10 µM
- TGI (SNB-75 CNS): > 10 µM
- TGI (SR leukemia): > 10 µM
- TGI (SW-620 colon): > 10 µM
- TGI (T-47D breast): > 10 µM
- TGI (TK-10 renal): > 10 µM
- TGI (U251 CNS): > 10 µM
- TGI (UACC-257 melanoma): > 10 µM
- TGI (UACC-62 melanoma): > 10 µM

Structure (SMILES): COC(=O)CC1C(C)(C)C(=O)C2CC3=C4CC(=O)OC(c5ccoc5)C4(C)CCC3C1(C)C2=O (centres undefined)
- TGI (786-0 renal): > 100 µM
- TGI (A498 renal): > 100 µM
- TGI (A549 NSCLC): > 100 µM
- TGI (ACHN renal): > 100 µM
- TGI (BT-549 breast): > 100 µM
- TGI (CAKI-1 renal): > 100 µM
- TGI (CCRF-CEM leukemia): > 100 µM
- TGI (COLO 205 colon): > 100 µM
- TGI (DU-145 prostate): > 100 µM
- TGI (EKVX NSCLC): > 100 µM
- TGI (HCC-2998 colon): > 100 µM
- TGI (HCT-116 colon): > 100 µM
- TGI (HCT-15 colon): > 100 µM
- TGI (HL-60(TB) leukemia): > 100 µM
- TGI (HOP-62 NSCLC): > 100 µM
- TGI (HOP-92 NSCLC): > 100 µM
- TGI (HS 578T breast): > 100 µM
- TGI (HT29 colon): > 100 µM
- TGI (IGROV1 ovarian): > 100 µM
- TGI (K-562 leukemia): > 100 µM
- TGI (KM12 colon): > 100 µM
- TGI (LOX IMVI melanoma): > 100 µM
- TGI (M14 melanoma): > 100 µM
- TGI (MALME-3M melanoma): > 100 µM
- TGI (MCF7 breast): > 100 µM
- TGI (MDA-MB-231 breast): > 100 µM
- TGI (MDA-MB-435): > 100 µM
- TGI (MDA-N): > 100 µM
- TGI (MOLT-4 leukemia): > 100 µM
- TGI (NCI-H226 lung): > 100 µM
- TGI (NCI-H23 lung): > 100 µM
- TGI (NCI-H460 lung): > 100 µM
- TGI (NCI-H522 lung): > 100 µM
- TGI (NCI/ADR-RES ovarian): > 100 µM
- TGI (OVCAR-3 ovarian): > 100 µM
- TGI (OVCAR-4 ovarian): > 100 µM
- TGI (OVCAR-5 ovarian): > 100 µM
- TGI (OVCAR-8 ovarian): > 100 µM
- TGI (PC-3 prostate): > 100 µM
- TGI (RPMI-8226 leukemia): > 100 µM
- TGI (RXF 393 renal): > 100 µM
- TGI (SF-268 CNS): > 100 µM
- TGI (SF-295 CNS): > 100 µM
- TGI (SF-539 CNS): > 100 µM
- TGI (SK-MEL-2 melanoma): > 100 µM
- TGI (SK-MEL-28 melanoma): > 100 µM
- TGI (SK-MEL-5 melanoma): > 100 µM
- TGI (SK-OV-3 ovarian): > 100 µM
- TGI (SN12C renal): > 100 µM
- TGI (SNB-19 CNS): > 100 µM
- TGI (SNB-75 CNS): > 100 µM
- TGI (SR leukemia): > 100 µM
- TGI (SW-620 colon): > 100 µM
- TGI (T-47D breast): > 100 µM
- TGI (TK-10 renal): > 100 µM
- TGI (U251 CNS): > 100 µM
- TGI (UACC-257 melanoma): > 100 µM
- TGI (UACC-62 melanoma): > 100 µM
